# Laboratory results taken from US7166598B2, “Piperazine derivatives” (Astellas Pharma Inc., priority 1998, dated 2007).
# Experiments:
# Emesis in the dog = Emesis in the dog (apomorphine-induced retching and vomiting); format: in vivo; settings: dose of 0.32 mg/kg i.v., 5 min before subcutaneous apomorphine (0.1 mg/0.5 ml/kg), observed for 60 min
# Protocol: Individually housed adult female dogs (8 to 15 kg) were given an i.v. injection of a solution containing a test compound. 5 Min later the emetic responses (retching and vomiting) were induced by administration of subcutaneous apomorphine (0.1 mg/0.5 ml/kg) and observed for the next 60 min. The timing and number of retches and vomits observed were recorded for each animal. An individual animal was tested with at least 10 days between experiments.
melting point,SMILES,inhibition rate of emesis in the dog (Emesis in the dog) [%]
188 to 200 °C,"Cc1ccc(CC2CN(CCN3C[C@@H](C)O[C@@H](C)C3)CCN2C(=O)c2cc(C(F)(F)F)cc(C(F)(F)F)c2)cc1O.Cl.Cl (relative stereo) [Example 4-(1), 1-[3,5-Bis(trifluoromethyl)benzoyl]-4-[2-(cis-2,6-dimethylmorpholino)ethyl]-2-(3-hydroxy-4-methylbenzyl)piperazine dihydrochloride]",100
169 to 174 °C,COC[C@@H]1CN(CCN2CCN(C(=O)c3cc(SC)cc(C(F)(F)F)c3)[C@H](Cc3ccc(Cl)c(O)c3)C2)CCO1.Cl.Cl,
209.6 to 213.7 °C,C[C@@H]1CN(CCN2CCN(C(=O)c3cc(C(F)(F)F)cc(S(=O)(=O)N(C)C)c3)[C@H](Cc3ccc(Cl)cc3)C2)C[C@H](C)O1.Cl.Cl,
> 230 °C,COC[C@@H]1CN(CCN2CCN(C(=O)c3cc(C(F)(F)F)cc(S(=O)(=O)C4CCCC4)c3)[C@H](Cc3ccc(Cl)cc3)C2)CCO1.Cl.Cl,
64 to 74 °C,Cl.Cl.O=C(c1cc(C(F)(F)F)cc(C(F)(F)F)c1)N1CCN(CCCc2cccnc2)C[C@H]1Cc1ccc(C(F)(F)F)cc1,
60 to 80 °C,COc1cc(C(=O)N2CCN(Cc3cccnc3)C[C@H]2Cc2ccc(Cl)cc2)cc(C(F)(F)F)c1.Cl.Cl,
205 to 208 °C,COc1cc(C[C@@H]2CN(CCN3C[C@@H](C)O[C@@H](C)C3)CCN2C(=O)c2cc(C(F)(F)F)cc(C(F)(F)F)c2)ccc1F.Cl.Cl,
210 to 245 °C (dec.),Cl.Cn1cc(CN2CCN(C(=O)c3cc(C(F)(F)F)cc(C(F)(F)F)c3)[C@H](Cc3ccc(Cl)cc3)C2)cn1,
190 to 200 °C,Cc1ccc(C[C@@H]2CN(CCN3CCOc4cccnc43)CCN2C(=O)c2cc(C(F)(F)F)cc(C(F)(F)F)c2)cc1O.Cl.Cl,
204 to 214 °C,COC[C@H]1CN(CCN2CCN(C(=O)c3cc(C(F)(F)F)cc(C(F)(F)F)c3)[C@H](Cc3ccc(Cl)c(O)c3)C2)CCO1.Cl.Cl,
130.6 to 135.7 °C,Cl.Cl.Cl.O=C(c1cc(Cl)cc(C(F)(F)F)c1)N1CCN(CCN2CCc3ncccc3C2)C[C@H]1Cc1ccc(Cl)cc1,
173 to 185 °C,Cc1ccc(CC2CN(CCN3C[C@H]4C[C@H]3C(C)(C)O4)CCN2C(=O)c2cc(C(F)(F)F)cc(C(F)(F)F)c2)cc1O.Cl.Cl (stereo partly shown),
143.3 to 147.5 °C,COc1cc(C[C@@H]2CN(CCN3CCc4ncccc4C3)CCN2C(=O)c2cc(SC)cc(C(F)(F)F)c2)ccc1F.Cl.Cl.Cl,
109.5 to 119.2 °C,COC[C@@H]1CN(CCN2CCN(C(=O)c3cc(OC)cc(C(F)(F)F)c3)[C@H](Cc3ccc(F)cc3)C2)CCO1.Cl.Cl,
162 to 165 °C,Cc1ccc(C[C@@H]2CN(Cc3csc(N(C)C)n3)CCN2C(=O)c2cc(C(F)(F)F)cc(C(F)(F)F)c2)cc1O.Cl.Cl,
50 to 70 °C,COC[C@@H]1CN(C/C=C/CN2CCN(C(=O)c3cc(C(F)(F)F)cc(C(F)(F)F)c3)[C@H](Cc3ccc(C)c(O)c3)C2)CCO1.Cl.Cl,
209 to 226 °C,CN(C)S(=O)(=O)c1cc(C(=O)N2CCN(CCN3CCc4ncccc4C3)C[C@H]2Cc2ccc(Cl)cc2)cc(C(F)(F)F)c1.Cl.Cl.Cl,
190 to 210 °C,CSc1cc(C(=O)N2CCN(CCN3CCc4ncccc4C3)C[C@H]2Cc2ccc(C(F)(F)F)cc2)cc(C(F)(F)F)c1.Cl.Cl,

melting point,SMILES,inhibition rate of emesis in the dog (Emesis in the dog) [%]
163 to 176 °C,COC[C@@H]1CN(CCN2CCN(C(=O)c3cc(C(F)(F)F)cc(C(F)(F)F)c3)[C@H](Cc3ccc(C)c(NCN4C(=O)CCC4O)c3)C2)CCO1.Cl.Cl.Cl (stereo partly shown),
76.5 to 130.6 °C,CC1(C)COCCN1CC#CCN1CCN(C(=O)c2cc(C(F)(F)F)cc(C(F)(F)F)c2)[C@H](Cc2ccc(F)cc2)C1.Cl.Cl,
80.1 to 82.5 °C,C[C@@H]1CN(CCN2CCN(C(=O)c3cc(F)cc(C(F)(F)F)c3)[C@H](Cc3ccc(Cl)cc3)C2)C[C@H](C)O1.Cl.Cl,
143 to 147 °C,COc1cc(C[C@@H]2CN(Cc3cccnc3)CCN2C(=O)c2cc(C(F)(F)F)cc(C(F)(F)F)c2)ccc1F.Cl.Cl,
70 to 80 °C,COc1cc(C(=O)N2CCN(CCCc3cccnc3)C[C@H]2Cc2ccc(C(F)(F)F)cc2)cc(C(F)(F)F)c1.Cl.Cl,
139 to 142 °C,COC[C@@H]1CN(CCN2CCN(C(=O)c3cc(Cl)cc(C(F)(F)F)c3)[C@H](Cc3ccc(F)c(OC)c3)C2)CCO1.Cl.Cl,
128 to 134 °C,COC[C@@H]1C[C@@H](OC)CN1CCN1CCN(C(=O)c2cc(C(F)(F)F)cc(C(F)(F)F)c2)[C@H](Cc2ccc(F)c(OC)c2)C1.Cl.Cl,
139 to 148 °C,COC[C@H]1CN(CCN2CCN(C(=O)c3cc(C(F)(F)F)cc(C(F)(F)F)c3)[C@H](Cc3ccc(F)c(OC)c3)C2)CCO1.Cl.Cl,
182 to 186 °C,COC[C@@H]1CN(CCN2CCN(C(=O)c3cc(N(C)C)cc(C(F)(F)F)c3)[C@H](Cc3ccc(C)c(O)c3)C2)CCO1.Cl.Cl,
187 to 192 °C,Cl.Cl.O=C(c1cc(C(F)(F)F)cc(C(F)(F)F)c1)N1CCN(Cc2cccnc2)C[C@H]1Cc1ccc(Cl)c(O)c1,
> 250 °C,Cl.Cl.O=C(c1cc(C(F)(F)F)cc(C(F)(F)F)c1)N1CCN(CCN2CCC(F)(F)CC2)C[C@H]1Cc1ccc2ccccc2c1,
160 to 170 °C,Cl.Cn1cc(CN2CCN(C(=O)c3cc(C(F)(F)F)cc(C(F)(F)F)c3)[C@H](Cc3ccc(F)c(O)c3)C2)cn1,
166 to 206 °C,COC[C@@H]1CN(CCN2CCN(C(=O)c3cc(C(F)(F)F)cc(S(N)(=O)=O)c3)[C@H](Cc3ccc(C)c(O)c3)C2)CCO1.Cl.Cl,
184 to 191 °C,Cl.Cl.Cl.O=C(c1cc(-n2cccc2)cc(C(F)(F)F)c1)N1CCN(CCN2CCc3ncccc3C2)C[C@H]1Cc1ccc(Cl)cc1,
156 to 168 °C,COC[C@@H]1CN(CCN2CCN(C(=O)c3cc(C(F)(F)F)cc(C(F)(F)F)c3)[C@H](Cc3ccc(F)c(O)c3)C2)CCO1.Cl.Cl,
56.59 °C,COC[C@@H]1C[C@@H](OC)CN1CCN1CCN(C(=O)c2cc(C(F)(F)F)cc(C(F)(F)F)c2)[C@H](Cc2ccc(C(F)(F)F)cc2)C1.Cl.Cl,
154 to 156 °C,CSc1cc(C(=O)N2CCN(CCN3C[C@@H](C)O[C@@H](C)C3)C[C@H]2Cc2ccc(C(F)(F)F)cc2)cc(C(F)(F)F)c1.Cl.Cl,
130 to 138 °C,COC[C@@H]1CN(CCN2CCN(C(=O)c3cc(C(F)(F)F)cc(C(F)(F)F)c3)[C@H](Cc3ccc(C(F)(F)F)cc3)C2)C[C@H](COC)O1.Cl.Cl,
